# According to patent US12070472B2, “Treatment of drug resistant proliferative diseases with telomerase mediated telomere altering compounds” (The Board of Regents of the University of Texas System, priority 2016, dated 2024):
# Tests used:
# [1] = system: BJ-hTERT cells; test: Telomere dysfunction induced foci (TIF) assay in BJ-hTERT cells; type: cell-based, human; conditions: 10 μM, after 48 hours
# Method: (§1) TIFs were quantified using Imaris software.
# (§2) Normal BJ cells and […] BJ-hTERT cells were seeded in chamber slides. Following cell attachment, 6-thio-dG (10 μM) and 6-thio-G (10 μM) were added to fresh medium of each cell type. […] A control was used for each cell type as well, where DMSO was added to fresh medium of each cell type. […] These include almost all human cancer cells and certain human diseases involving acute and chronic inflammation.
# [2] = system: BJ cells; test: Telomere dysfunction induced foci (TIF) assay in normal BJ cells; type: cell-based, human; conditions: 10 μM, after 48 hours
# Method: as §1, §2
# [3] = system: HCT116; test: GI 50 determination, HCT116; type: cell-based; conditions: Homo sapiens, HCT-116
# Method: (§3) Cells of each type listed in Table 2 were seeded in chamber slides.
# [4] = system: A549; test: GI 50 determination, A549; type: cell-based; conditions: Homo sapiens
# Method: as §3
# [5] = system: H2882; test: GI 50 determination, H2882; type: cell-based; conditions: Homo sapiens, NCI-H2882
# Method: as §3
# [6] = system: HCC2429; test: GI 50 determination, HCC2429; type: cell-based; conditions: Homo sapiens
# Method: as §3
# [7] = system: HCC827; test: GI 50 determination, HCC827; type: cell-based; conditions: Homo sapiens
# Method: as §3
# [8] = system: HCC15; test: GI 50 determination, HCC15; type: cell-based; conditions: Homo sapiens
# Method: as §3
# [9] = system: HCC4017; test: GI 50 determination, HCC4017; type: cell-based; conditions: Homo sapiens
# Method: as §3
# [10] = system: HCT116 cells; conditions: 3 μM twice during one week
# Method: Cancer HCT116 and normal BJ fibroblast cells were treated with 6-thio-dG (3 μM) and 6-thio-G (3 μM) twice during one week. Following one week of the treatment, cell morphology was monitored, and then the cells were collected and counted.
# [11] = system: A549 human lung cancer cells; test: Tumor growth in xenograft animal model with A549 cells; type: in vivo, mice; conditions: 2.5 mg/kg every day
# Method: Doses of 2.5 mg/kg of 6-thio-dG and 2.5 mg/kg of 6-thio-G were injected every day into mice after tumor implantation and providing time for tumor initiation. DMSO injections were used for the control. The volume of the tumor was measured.
# [12] = Toxicity testing in rats; conditions: for mortality: rats
# Method: Six rats were treated with 15 mg of 6-thio-dG/kg of body weight every two days. […] Another 5 rats were treated with 50 mg of 6-thio-dG/kg of body weight every other day.
# [13] = system: A549 non-small cell lung cancer cell line; test: CellTitreGlo survival, 7 days, A549; type: cell-based; conditions: Homo sapiens, 168 h
# Method: (§4) Four different cell lines were treated with nine different doses of 6-thio-dG for 7 days. HCT116 colon cancer cell line (FIG. 9A), HCEC1 normal colonic cell line (FIG. 9C), A549 non-small cell lung cancer cell line (FIG. 9B), and BJ normal fibroblast cell line (FIG. 9D) were each treated. Survival fraction was measured by CellTitreGlo luminescent cell viability assay (Promega).
# [14] = system: HCEC1 normal colonic cell line; test: CellTitreGlo survival, 7 days, HCEC1; type: cell-based; conditions: Homo sapiens, 168 h
# Method: as §4
# [15] = system: BJ normal fibroblast cell line; test: CellTitreGlo survival, 7 days, BJ; type: cell-based; conditions: Homo sapiens, 168 h
# Method: as §4
# [16] = system: H1693; test: NSCLC panel sensitivity to 6-thio-dG, H1693; type: cell-based, human
# Method: (§5) A panel of NSCLC cell lines was tested for sensitivity to 6-thio-dG by performing a cell count after 1 week treatment. Briefly, cells were treated with 3 μM 6-thio-dG every three days for 1 week. Viable cells were counted at the end of treatment. Each 6-thiodG treated cell line was normalized to its DMSO treated control.
# (§6) Two isogenic pairs of NSCLC cell lines were studied for sensitization to 6-thio-dG treatment.
# [17] = system: H1819; test: NSCLC panel sensitivity to 6-thio-dG, H1819; type: cell-based, human
# Method: as §5, §6
# [18] = system: H2126; test: NSCLC panel sensitivity to 6-thio-dG, H2126; type: cell-based; conditions: Homo sapiens, NCI-H2126
# Method: as §5, with “control. The results of the cell count are depicted in FIG. 12, with the various cell lines arranged in descending resistance to 6-thio-dG from left to right. […] The IC50 values for the whole panel of tested cells are depicted in FIG. 13. The IC50 values for tested cells are depicted as a column scatter graph in FIG. 14.” for “control.”
# [19] = system: H324; test: NSCLC panel sensitivity to 6-thio-dG, H324; type: cell-based; conditions: Homo sapiens
# Method: as §5, with “control. The results of the cell count are depicted in FIG. 12, with the various cell lines arranged in descending resistance to 6-thio-dG from left to right. […] The IC50 values for the whole panel of tested cells are depicted in FIG. 13. The IC50 values for tested cells are depicted as a column scatter graph in FIG. 14.” for “control.”
# [20] = system: H1993 cells; test: Sensitization by 5-azacytidine pretreatment, H1993; type: cell-based, human; conditions: Homo sapiens, NCI-H1993, 500 nM 5-azacytidine one week, then 6-thio-dG one week, read-out: IC50 of 6-thio-dG after 5-azacytidine pretreatment
# Method: All three resistant cell lines were pre-treated with 500 nM of the demethylating agent 5-azacytidine for one week. Following the 5-azacytidine pretreatment, each resistant cell line was treated with 9 different concentrations (0.01 to 1000 micromolar) of 6-thio-dG for one week. Cells were then evaluation for growth/death.
# [21] = system: HCT116 sub clones; test: 6-thio-dG on HCT116 sub clone cell lines, cell count; type: cell-based, human; conditions: for sensitivity (cell count): 3 μM for 4 weeks
# Method: In a separate experiment, 31 sub clone cell lines were derived from HCT116 cells that had no prior treatment with 6-thio-dG. […] At the end of one week, a cell count was performed of treated cells and cell percentage calculated relative to control cell count (FIG. 22). […] Four of the sub clone cell lines were further studied for resistance to 6-thio-dG. […] HCT116 Control group represent the main population treated with DMSO:water for 1-4 weeks. At the end of 4 weeks a cell count was performed to quantify cell growth. […] (FIG. 23)
# [22] = system: HCC4017 paclitaxel/carboplatin resistant cell line; test: 6-thio-dG on HCC4017 paclitaxel/carboplatin resistant line; type: cell-based, human; conditions: 1, 3, 10 μM
# Method: (§7) The resulting resistant lines and their parents were tested for the effect of 6-thio-dG at 1, 3, and 10 μM concentrations.
# [23] = system: H1819; test: 6-thio-dG on H1819 parental and paclitaxel/carboplatin resistant lines; type: cell-based, human; conditions: 1, 3, 10 μM
# Method: as §7
structure (smiles),measurement,setting,value
"Nc1nc2c(ncn2[C@H]2C[C@H](O)[C@@H](CO)O2)c(=S)[nH]1 [6-thio-dG, 6-thio-2′-deoxyguanosine]",>4 TIFs per nucleus background subtracted,[1],14
same,>4 TIFs per nucleus background subtracted,[2],2
same,GI50,[3],1 µM
same,GI50,[4],2.1 µM
same,GI50,[5],0.4 µM
same,GI50,[6],0.6 µM
same,GI50,[7],0.8 µM
same,GI50,[8],0.8 µM
same,GI50,[9],0.9 µM
same,cell death / cell count,[10],death of the vast majority of HCT116 cells
same,histology of residual tumors,[11],mostly fibrotic and often associated with apoptotic and inflammatory cells
same,rate of tumor growth (tumor volume),[11]; compared to control and 6-thio-G,rate of tumor growth was less
same,signs of impaired function in surviving animals,"[12]; rat, in vivo, 15 mg/kg",no signs of impaired function
same,mortality,"[12]; 15 mg/kg every two days, six rats",One rat died after 6 injections
same,mortality,"[12]; 50 mg/kg every other day, 5 rats",All rats died after 12 days
same,IC50,[13],2.4 µM
same,IC50,[14],> 100 µM
same,IC50,[15],> 100 µM
same,survival rate,"[16]; H1693, 3 μM every three days for 1 week, normalized to DMSO control",greater than 50%
same,IC50,"[16]; Homo sapiens, NCI-H1693",> 100 µM
same,survival rate,"[17]; H1819, 3 μM every three days for 1 week, normalized to DMSO control",greater than 50%
same,IC50,"[17]; Homo sapiens, NCI-H1819",> 100 µM
same,IC50,[18],3 to 7 µM
same,IC50,[19],2.2 µM
same,IC50,[20],~4.1 µM
same,sensitivity (cell count),[21]; HCT116 clone #5,remained sensitive for the duration of the experiment
same,sensitivity (cell count relative to control),"[21]; HCT116 clone #8, 3 μM every three days for one week",became intrinsically resistant to 6-thio-dG treatment
same,sensitivity (cell count),[21]; HCT116 clone #8,maintained resistance for the duration of the treatment
same,sensitivity (cell count),[21]; HCT116 clone #15,remained sensitive for the duration of the experiment
same,sensitivity (cell count),[21]; HCT116 sub clone #31,acquired resistance and by week 4 showed cell growth indistinguishable from controls
same,sensitivity,[22],still sensitive to 6-thio-dG
same,sensitivity,[23],resistant to 6-thio-dG
